Assay results published in US20050249675A1, “Mucin synthesis inhibitors” (priority 2003, published 2005).
“Also recorded” adds a separate entry of the source. Where two headings read alike, the source gives them in different places.

Experiments:
[1] = system: mice sensitized to Aspergillus fumigatus; experiment: Aspergillus fumigatus murine asthma model, talniflumate chow; assay type: in vivo; conditions: oral; for Lung eosinophilia by bronchoalveolar lavage: talniflumate chow, vs sensitized mice fed standard chow
NCI-H292/hCLCA1 cells = experiment: AB/PAS staining of mucous glycoconjugates in NCI-H292/hCLCA1 cells; assay type: cell-based, human; conditions: NFA 100 μM, MFA 125 or 250 μM, talniflumate 12.5, 25 or 50 μM; vs untreated cells
Procedure: For the determination of mucous glycoconjugate production, NCI-H292/ctl and NCI-H292/hCLCA1 (AAF 15) cells were cultured in 24-well plates for 3 days. Cells were then fixed with Formalin and mucous glycoconjugates were visualized by AB/PAS staining (Sigma). […] For chloride channel blockage studies, cells were cultured in the presence of niflumic acid (NFA) (Sigma) at 100 μM concentration, mefanamic acid (MFA) at 125 or 250 μM or talniflumate at 12.5, 25 or 50 μM, or media alone.
For the determination of mucous glycoconjugate production, NCI-H292/hCLCA1 cells were cultured in 24-well plates for 3 days with at concentrations of 0 to 150 μM of the talniflumate enantiomers or media alone (control). Cells were then fixed with Formalin and mucous glycoconjugates were visualized by AB/PAS staining (Sigma). […] In this assay both enantiomers were seen to inhibit muco-glycoconjugate production at concentrations>40 μM.

[2] = system: MUC5A/C secretion in hCLCA1 expressing H292 cells; experiment: MUC5A/C secretion by ELLA in hCLCA1 expressing H292 cells; assay type: cell-based, human; design: key to ELLA: (+) = inhibition; (−) = no inhibition
H292 clone 15 cells [3] = experiment: ELLA for MUC5AC, H292 clone 15 cells (Example 11); assay type: cell-based, human; conditions: MUC5AC in conditioned media, 48 hours, average of 3 experiments
Procedure: ELLA (Enzyme-Linked Lectin Assay) was used to determine the inhibitory effect of compounds on mucus production by H292 clone 15 cells. H292 clone 15 cells, a subclone from human pulmonary mucoepidermoid carcinoma cells overexpressing hCLCA1, were grown to confluent, followed by incubation with increasing concentrations of compounds for 48 hours. Conditioned media were collected and MUC5AC (the major secretory mucin in lungs) content was determined by ELLA measurement as described below. 96 well microtiter plates were coated with a mouse monoclonal antibody against human MUC5AC (1-13M1, NeoMarkers), then incubated with test conditioned media. Bound MUC5AC was detected by horseradish peroxidase-conjugated soybean lectin that has a high affinity towards highly-glycosylated proteins such as MUC5AC. Conversion of peroxidase substrate TMB (Tetramethylbenzidine Base) was quantified by reading at 450 nm. O.D. (optical density) readings were plotted against concentrations of compounds. Linear regression was used to derive the concentration at which O.D. was reduced by 50% (IC50) when compared to vehicle-treated cells.

[4] = system: CF mice (CF knock-out mice and CF AF508 mice); experiment: CF mice body weight and survival on talniflumate chow; assay type: in vivo; conditions: approximate dose of 100 mg/kg per os in chow
Procedure: Within two weeks of weaning, the osmotic agent treatment was discontinued and the mice were either placed on talniflumate containing chow or control chow. The CF mice consuming control chow lost 10-15% body weight and died (CF knock-out) or were euthanized (CF AF508) due to the animal's moribund state within 7 days post-osmotic agent. In contrast, the CF mice that consumed talniflumate (approximate dose of 100 mg/kg per os) gained 8-12% body weight and survived at least 26 days, at which time they were sacrificed to evaluate histopathology (see FIG. 20).

MUC2 = assay type: cell-based; conditions: LTA from S. aureus; FIG. 22
[5] = molecular target: T1, human chloride channel hCLCA1 (Homo sapiens, UniProt A8K7I4); experiment: Patch clamp chloride current, NCI-H292 cell expressing hCLCA1; assay type: cell-based; conditions: 5 micromolar talniflumate; 2 μM ionomycin and 2 mM calcium; positive voltage
T1 construct: expressed in transfected cells; host or cells: NCI-H292 (human pulmonary mucoepidermoid carcinoma)
T1 sequence (A8K7I4 22-914): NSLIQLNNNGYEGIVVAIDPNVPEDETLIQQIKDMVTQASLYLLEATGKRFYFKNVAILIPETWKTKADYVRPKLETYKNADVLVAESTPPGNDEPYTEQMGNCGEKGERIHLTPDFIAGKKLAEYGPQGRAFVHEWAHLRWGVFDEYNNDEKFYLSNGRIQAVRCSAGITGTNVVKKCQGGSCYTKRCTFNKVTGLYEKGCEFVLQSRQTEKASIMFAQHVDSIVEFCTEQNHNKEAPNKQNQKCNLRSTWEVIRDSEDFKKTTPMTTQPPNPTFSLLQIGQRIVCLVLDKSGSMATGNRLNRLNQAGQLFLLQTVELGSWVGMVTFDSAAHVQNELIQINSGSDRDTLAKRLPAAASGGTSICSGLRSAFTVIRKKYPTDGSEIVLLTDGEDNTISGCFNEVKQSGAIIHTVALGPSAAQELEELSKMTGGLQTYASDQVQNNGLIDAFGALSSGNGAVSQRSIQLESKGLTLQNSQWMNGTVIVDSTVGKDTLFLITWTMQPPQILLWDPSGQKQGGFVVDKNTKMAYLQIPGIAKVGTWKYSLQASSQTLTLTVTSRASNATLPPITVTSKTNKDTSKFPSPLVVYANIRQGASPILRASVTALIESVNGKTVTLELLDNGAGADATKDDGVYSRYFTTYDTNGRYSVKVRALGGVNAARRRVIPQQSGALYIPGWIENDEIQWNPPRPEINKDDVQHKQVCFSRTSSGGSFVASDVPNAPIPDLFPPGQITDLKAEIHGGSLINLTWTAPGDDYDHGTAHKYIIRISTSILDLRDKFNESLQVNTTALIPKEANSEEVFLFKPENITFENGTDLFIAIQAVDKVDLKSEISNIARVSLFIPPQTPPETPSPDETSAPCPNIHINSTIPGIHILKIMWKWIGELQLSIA
Procedure: An NCI-H292 cell transfected with a plasmid expressing the human chloride channel hCLCA1 was patch clamped and chloride current (I) was measured over a range of voltages (V). Substantial chloride current was invoked by the addition of 2 μM ionomycin and 2 mM calcium (circles) compared to baseline (squares), indicating activation of hCLCA1.

H292 clone 15 cells [6] = experiment: Alamar Blue cytotoxicity; conditions: for Est. LD50 (Alamar Blue): H292 clone 15 cells, 48 hours, average of 3 experiments
Muc5b = experiment: Inhibition of Muc5b expression; assay type: cell-based; design: key: (+) = inhibition; (−) = no inhibition; conditions: Table 2
Procedure: The effects of talniflumate derivatives on mucin production were also assayed for changes in ELLA and IC50 (Table 2) as described in the methods above.

[7] = system: activated Caco2 cell line; experiment: Viability of activated Caco2 cells; assay type: cell-based; conditions: even higher concentrations of NFA; FIG. 3
activated LHL4 cells = experiment: Eotaxin ELISA, activated LHL4 cells; assay type: cell-based; conditions: increasing concentrations
Procedure: Activated LHL4 cells that express and secrete eotaxin have been produced and used to test for inhibitors of eotaxin production. These cells were assayed in vitro for eotaxin by an ELISA technique well known in the art (R&D Systems).

[8] = system: mice sensitized by nasal aspiration of Aspergillus fumigatus antigen; experiment: Aspergillus fumigatus antigen murine asthma model, intra-tracheal NFA; assay type: in vivo; conditions: 100 μg NFA intra-tracheal, days 0-21
IL9 transgenic mice = experiment: Mucin production in lungs of IL9 transgenic mice; assay type: in vivo; conditions: IT once daily for three days; NFA 100 μg
Procedure: Certified virus-free male and female IL9 transgenic mice (IL9TG5-FVB/N) 5-6 weeks of age were bred in our laboratories. Male and female FVB/N mice 5-6 weeks of age were purchased from Jackson Laboratories (Bar Harbor Me.). Animals were housed in high-efficiency, particulate filtered air and allowed free access to food and water for 3 to 7 days prior to experimental manipulation. The animal facilities were maintained at 22° C. and the light:dark cycle was automatically controlled (10:14 hour light:dark).
Animals were phenotyped, naïve, or 24 hrs after receiving intra-tracheal (IT) shame (vehicle) treatment, or drugs in the same vehicle as was used in identically treated controls. Mice were treated IT once daily for three days. NFA (100 μg) or antibody to IL-9 were administered in PBS IT. Treatment responses were measured by the assessment of mucin inhibition by histologic exam (PAS staining of greater than 10 sections through the treated and control lungs or western blots of MUC 1, MUC2 and MUC3 expression from the same lungs.
The up-regulation of mucus production in the IL9 transgenic is specifically associated with increased steady-state mRNA levels of MUC2 and MUC5AC as shown by RT-PCR (FIG. 9).

activated Caco2 cells = experiment: PAS staining for mucin in activated Caco2 cells; conditions: activated Caco2 cells; 100 μm for NFA and 300 μm for DIDS; vs untreated cells

O=C1OC(OC(=O)c2cccnc2Nc2cccc(C(F)(F)F)c2)c2ccccc21 (racemic) [Talniflumate, talniflumate]
Lung eosinophilia by bronchoalveolar lavage [1]: reduced the number of eosinophilic cells
Lung eosinophilia by bronchoalveolar lavage ([1]; listed as talniflumate): inhibition of lung eosinophilia
Mucin (PAS) staining in lung ([1]; talniflumate containing chow, Asp-sens mice): reduced mucin staining; also recorded: inhibition of mucin over production
PAS positive staining muco-glycoconjugates (NCI-H292/hCLCA1 cells): significantly fewer positive staining muco-glycoconjugates
Inhibition of MUC5A/C secretion / mucin production (figure legends) [2]: inhibition of mucin production
IC50 ([2]; Homo sapiens, NCI-H292/hCLCA1 cells, 0 through 150 μM, 48 hours, FIG. 26, read-out: IC50, inhibition of MUC5A/C secretion): 36 µM
IC50 (H292 clone 15 cells [3]; Homo sapiens, NCI-H292): 33 µM
Body weight gain [4]: 8-12%
Survival ([4]; then sacrificed): at least 26 days
Lipoteichoic acid induction of MUC2 (luciferase RLU) (MUC2): modulated
Chloride Current [5]: reduction in chloride current
Est. LD50 (Alamar Blue) (H292 clone 15 cells [6]): 108 µM
LD50 (Alamar Blue) (H292 clone 15 cells [6]; NCI-H292/hCLCA1 cells, concentrations up to 150 μM, FIG. 27): > 150 µM

O=C1OC(CC(=O)c2cccnc2Nc2cccc(C(F)(F)F)c2)c2ccccc21 (stereo not drawn) [4 (MSI 2216)]
IC50 ([2]; Table 2, ELLA, read-out: IC50): 5 µM
ELLA ([2]; Table 2, mucin production): +
IC50 (H292 clone 15 cells [3]): 3 µM
Inhibition of Muc5b Expression (Muc5b): +
Est. LD50 (Alamar Blue) (H292 clone 15 cells [6]): 32 µM

O=C(O)c1cccnc1Nc1cccc(C(F)(F)F)c1 [NFA, niflumic acid]
Viability of activated Caco2 cells [7]: not affected; also recorded: did not effect their viability
Eotaxin production (activated LHL4 cells): Significant inhibition; also recorded: blocks epithelial activation including chemokine production
Serum IgE levels [8]: no effect
Antigen-induced airway hyperresponsiveness ([8]; vs PBS): suppress airway hyperresponsiveness; also recorded: suppresses antigen-induced airway hyperresponsiveness
BAL lung eosinophilia ([8]; vs PBS): suppress; also recorded: reduces antigen-induced lung eosinophilia
Over-production of mucus in the lung caused by exposure to antigen ([8]; vs PBS): suppress the over-production of mucus; also recorded: blocks increased mucin expression
Mucin production in IL9 transgenic lungs (IL9 transgenic mice): decreased mucin production
PAS positive staining muco-glycoconjugates (NCI-H292/hCLCA1 cells): significantly fewer positive staining muco-glycoconjugates
PAS positive staining mucin glycoconjugates (activated Caco2 cells): significantly fewer positive staining mucin glycoconjugates; also recorded: blocks mucin overproduction in vitro
